Source: US7935506B2, “Method for producing a lower alkyl ester of α-L-aspartyl-L-phenylalanine” (priority 2001, dated 2011)

Tests used:
Type in all cases: cell-based
Conditions in all cases: 37° C.
[1] = tested on: E. coli strain TG1 (pUC19); assay: Growth on M9 glucose minimal agar plates containing inhibitor, strain TG1 (pUC19)
Experimental: (§1) The pYDDG1 and pYDDG2 plasmids and the pUC19 and pAYCTER3 vectors were introduced into E. coli strain TG1. Thus the strains TG1 (pYDDG1), TG1 (pYDDG2), TG1 (pUC19) and TG1 (pAYCTER3) were obtained.
(§2) Then the ability of these strains to grow in the presence of amino acids and amino acid analogues for each strain were determined on M9 glucose minimal agar plates containing graded concentrations of inhibitor. The plates were spotted with 10^6 to 10^7 cells from an overnight culture grown in a minimal medium (supplemented with 100 μg/ml of ampicillin for plasmid strains). The growth was estimated after 44 h incubation at 37° C.

[2] = tested on: E. coli strain TG1 (pYDDG1); assay: Growth on M9 glucose minimal agar plates containing inhibitor, strain TG1 (pYDDG1)
Experimental: as §1, §2

[3] = tested on: E. coli strain TG1 (pYDDG2); assay: Growth on M9 glucose minimal agar plates containing inhibitor, strain TG1 (pYDDG2)
Experimental: as §1, §2
Also: key: +: good growth; ±: pour growth; −: no growth.

Structure (SMILES): N[C@@H](Cc1ccccc1)C(=O)O [L-phenylalanine]
- Growth after 44 h TG1 (pUC19) ([1]; substrate 20.0 mg/ml): −
- Growth after 44 h TG1 (pYDDG1) ([2]; substrate 20.0 mg/ml): +
- Growth after 44 h TG1 (pYDDG2) ([3]; substrate 20.0 mg/ml): ±

Structure (SMILES): NC(Cc1c[nH]c2ccc(F)cc12)C(=O)O (racemic) [5-fluoro-DL-tryptophane]
- Growth after 44 h TG1 (pUC19) ([1]; substrate 0.0005 mg/ml): −
- Growth after 44 h TG1 (pYDDG1) ([2]; substrate 0.0005 mg/ml): +

Structure (SMILES): NC(Cc1ccc(F)cc1)C(=O)O (racemic) [p-fluoro-DL-phenylalanine]
- Growth after 44 h TG1 (pUC19) ([1]; substrate 1.0 mg/ml): −
- Growth after 44 h TG1 (pUC19) ([1]; substrate 2.0 mg/ml): −
- Growth after 44 h TG1 (pYDDG1) ([2]; substrate 1.0 mg/ml): +
- Growth after 44 h TG1 (pYDDG1) ([2]; substrate 2.0 mg/ml): +
- Growth after 44 h TG1 (pYDDG2) ([3]; substrate 1.0 mg/ml): +
- Growth after 44 h TG1 (pYDDG2) ([3]; substrate 2.0 mg/ml): −
